This note sets out measurements from patent publication US9682995B2, “Amino-substituted isothiazoles” (BAYER PHARMA AKTIENGESELLSCHAFT, priority 2013, dated 2017).

Test [1] deals with human kinase Mps-1 (Homo sapiens (Human), UniProt P33981). Description: Mps-1 kinase assay (TR-FRET). Format: biochemical. To be noted: 10 μM ATP; read-out: Mps1 avg (IC50 [mol/l]). The gist of the method:
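GST-tagged full-length human Mps-1 (~0.5 nM) preincubated 15 min with compound, then reacted 60 min at 22 °C with 10 μM ATP and 1 μM biotinylated peptide in Hepes pH 7.7 buffer. Phosphoproduct detected by TR-FRET (Eu anti-phospho-Ser/Thr, SA-XLent); 665/620 ratio normalised to no-inhibitor and no-enzyme controls.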
In general terms: Time-resolved FRET reads energy transfer from a long-lived donor to a nearby acceptor.

The subject of test [2] is spindle assembly checkpoint. Description: SAC-Formation - Paclitaxel-Induced Assay. To be noted: Homo sapiens; HeLa cells, paclitaxel 0.05 μM, 24 h, phosphorylated histone H3 on serine 10. It is filed as cell-based. The gist of the method: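 HeLa cells were plated overnight, then given paclitaxel (0.05 μM final) plus compound (0.005-20 μM, 0.5% DMSO) for 24 h at 37° C. Fixed cells were stained for phospho-histone H3 Ser10 and with Hoechst, then imaged to give mitotic index. A fall in mitotic cells marks SAC breakthrough, and values were fit with a four-parameter Hill equation.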

The structures appear in SMILES notation.

Chain of human kinase Mps-1 (P33981 whole entry): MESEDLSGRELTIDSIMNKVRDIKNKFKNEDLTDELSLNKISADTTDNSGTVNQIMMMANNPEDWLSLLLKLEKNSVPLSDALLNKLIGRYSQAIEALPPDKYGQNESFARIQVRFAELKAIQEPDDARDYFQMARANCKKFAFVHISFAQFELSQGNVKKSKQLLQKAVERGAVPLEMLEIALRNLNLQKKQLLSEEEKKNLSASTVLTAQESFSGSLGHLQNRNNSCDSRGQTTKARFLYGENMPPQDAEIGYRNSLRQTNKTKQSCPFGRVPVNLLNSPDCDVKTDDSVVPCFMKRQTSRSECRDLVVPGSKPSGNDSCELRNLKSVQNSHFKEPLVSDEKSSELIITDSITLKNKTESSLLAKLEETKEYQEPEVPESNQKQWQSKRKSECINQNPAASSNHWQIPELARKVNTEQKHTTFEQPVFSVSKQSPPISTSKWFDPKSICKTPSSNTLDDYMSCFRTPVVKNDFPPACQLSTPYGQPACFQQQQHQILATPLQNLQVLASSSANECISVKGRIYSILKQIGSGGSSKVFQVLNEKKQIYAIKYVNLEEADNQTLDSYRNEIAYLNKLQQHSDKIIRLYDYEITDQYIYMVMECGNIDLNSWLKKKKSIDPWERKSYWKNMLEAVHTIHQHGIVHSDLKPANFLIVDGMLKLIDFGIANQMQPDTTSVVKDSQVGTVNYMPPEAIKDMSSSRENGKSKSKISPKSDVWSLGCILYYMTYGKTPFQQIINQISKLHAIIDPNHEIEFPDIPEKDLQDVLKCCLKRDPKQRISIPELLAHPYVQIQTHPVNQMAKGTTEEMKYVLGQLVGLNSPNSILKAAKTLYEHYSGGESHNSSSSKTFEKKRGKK

With `Cc1nsc(Nc2cncc(C(F)(F)F)n2)c1C(=O)Nc1ccc(F)c(F)c1` [Example 82, N-(3,4-Difluorophenyl)-3-methyl-5-{[6-(trifluoromethyl)pyrazin-2-yl]amino}-1,2-thiazole-4-carboxamide], the IC50 in test [1] is > 20 µM; in test [2], 0.077 µM.
On to `Cc1nsc(Nc2ccc(C(F)(F)F)nn2)c1C(=O)Nc1ccc(F)c(F)c1` [Example 83, N-(3,4-Difluorophenyl)-3-methyl-5-{[6-(trifluoromethyl)pyridazin-3-yl]amino}-1,2-thiazole-4-carboxamide], for which the IC50 in test [1] was > 20 µM; in test [2], 0.0093 µM.
Regarding `COc1ccc(NC(=O)c2c(C)nsc2Nc2cncc(C(F)(F)F)n2)cn1` [Example 84, N-(6-methoxypyridin-3-yl)-3-methyl-5-{[6-(trifluoromethyl)pyrazin-2-yl]amino}-1,2-thiazole-4-carboxamide], the IC50 in test [1] is > 20 µM; in test [2], 0.065 µM.
The matching figures for `COc1ccc(NC(=O)c2c(C)nsc2Nc2cnc(C(F)(F)F)cn2)cn1` [Example 85, N-(6-methoxypyridin-3-yl)-3-methyl-5-{[5-(trifluoromethyl)pyrazin-2-yl]amino}-1,2-thiazole-4-carboxamide]: > 20 µM and 0.052 µM.
With `CCc1ccccc1NC(=O)c1c(C)nsc1Nc1cnc2cc(Cl)ccc2n1` [Example 86, 5-[(6-Chloroquinoxalin-2-yl)amino]-N-(2-ethylphenyl)-3-methyl-1,2-thiazole-4-carboxamide], the IC50 in test [1] was > 20 µM; in test [2], 0.49 µM.
The matching figures for `COc1ccc(NC(=O)c2c(C)nsc2Nc2nc3cccnc3s2)cn1` [Example 89, N-(6-Methoxypyridin-3-yl)-3-methyl-5-([1,3]thiazolo[5,4-b]pyridin-2-ylamino)-1,2-thiazole-4-carboxamide]: > 20 µM and 2.3 µM.
For `COc1ccc(NC(=O)c2c(C)nsc2Nc2nc3ccc(C)cc3s2)cn1` [Example 90, N-(6-Methoxypyridin-3-yl)-3-methyl-5-[(6-methyl-1,3-benzothiazol-2-yl)amino]-1,2-thiazole-4-carboxamide], in that order: > 20 µM and 2.3 µM.
For `CCOC(=O)c1cnc(Nc2snc(C)c2C(=O)Nc2ccccc2CC)s1` [Example 92, Ethyl 2-({4-[(2-ethylphenyl)-carbamoyl]-3-methyl-1,2-thiazol-5-yl}amino)-1,3-thiazole-5-carboxylate], in that order: > 20 µM and 5.6 µM.
On to `COc1ccc(NC(=O)c2c(C)nsc2Nc2ncc(C(=O)N3CCOCC3)s2)cc1F` [Example 93, N-(3-Fluoro-4-methoxyphenyl)-3-methyl-5-{[5-(morpholin-4-ylcarbonyl)-1,3-thiazol-2-yl]amino}-1,2-thiazole-4-carboxamide], for which the IC50 in test [1] is > 20 µM; in test [2] it was 8 µM.
For the molecule `COc1ccc(NC(=O)c2c(C)nsc2Nc2cnc3ccccc3n2)cn1` [Example 94, N-(6-Methoxypyridin-3-yl)-3-methyl-5-(quinoxalin-2-ylamino)-1,2-thiazole-4-carboxamide], the IC50 in test [1] was > 20 µM; in test [2], 5.6 µM.
With `CCOC(=O)c1sc(Nc2snc(C)c2C(=O)Nc2ccc(Cl)c(F)c2)nc1C` [Example 95, Ethyl 2-({4-[(4-chloro-3-fluoro-phenyl)carbamoyl]-3-methyl-1,2-thiazol-5-yl}amino)-4-methyl-1,3-thiazole-5-carboxylate], the IC50 in test [1] was > 20 µM; in test [2] it was 0.51 µM.
